In PMC8383266 (Biochemistry, 2021):

Target: BlaC (β-lactamase) (Mycobacterium tuberculosis, UniProt P9WKD3, G144S)
Format: biochemical

## NC(=O)[C@@H]1CC[C@@H]2CN1C(=O)N2OS(=O)(=O)O [avibactam]
  activity of BlaC G132S in the presence of avibactam (Figure S13, not shown): we found BlaC G132S is also more sensitive to avibactam
